Experimental data taken from ChEMBL document CHEMBL1136392, “Anilinopyrimidines as novel antituberculosis agents” (Bioorg Med Chem Lett, 2003).
≈ marks a conversion by molar mass, not a printed value. Calls of active or inactive are those of the source. The rule behind the calls is not given here.

Columns and labels:
[1] = tested on: Mycobacterium tuberculosis; assay: Minimum inhibitory concentration against Mycobacterium tuberculosis using microplate alamar blue assay; assay type: functional
[2] = Cytotoxic concentration of compound against human epidermal carcinoma (KB) cell line; assay type: functional
Breast carcinoma cell = assay: Cytotoxic concentration of compound against human breast cancer cells; assay type: functional, cell-based
[3] = Cytotoxic concentration of compound against human small cell lung cancer (NCI-187); assay type: functional
[4] = tested on: Mycobacterium tuberculosis; assay: Minimum inhibitory concentration against Mycobacterium tuberculosis using microplate alamar blue assay; Inactive; assay type: functional, organism-based
[5] = tested on: Mycobacterium tuberculosis; assay: Minimum inhibitory concentration against (MDR-TB) Mycobacterium tuberculosis using microplate alamar blue assay; assay type: functional
Plasmodium falciparum = assay: In vitro activity as 50% reduction in parasite growth against Plasmodium falciparum by [3H]hypoxanthine uptake; assay type: functional, organism-based

**Q.** Which MIC [1] does the source give for `NC[C@H]1O[C@H](O[C@H]2[C@H](O)[C@@H](O[C@H]3O[C@H](CO)[C@@H](O)[C@H](N)[C@H]3O)[C@H](N)C[C@@H]2N)[C@H](O)[C@@H](O)[C@@H]1O.O=S(=O)(O)O` [KANAMYCIN SULFATE] here?
**A.** 5 µg/mL

**Q.** What does the source list for `Cc1c2ccncc2c(C)c2c1[nH]c1ccccc12` [ELLIPTECINE]?
**A.** IC50 [2]: 0.1 µg/mL (≈ 0.406 µM); IC50 (Breast carcinoma cell): 0.1 µg/mL (≈ 0.406 µM); IC50 [3]: 0.1 µg/mL (≈ 0.406 µM)

**Q.** With `NNC(=O)c1ccncc1` [ISONIAZID] as the molecule, how does the MIC [1] read?
**A.** 0.04 µg/mL (≈ 0.292 µM)

**Q.** With `Cc1cc(Nc2ccccc2)nc(Cl)n1` as the molecule, how does the MIC [1] read?
**A.** 50 µg/mL (≈ 228 µM)

**Q.** With `CCN(CC)c1nc(C)cc(N(C)c2ccccc2)n1` as the molecule, how does the MIC [1] read?
**A.** 50 µg/mL (≈ 185 µM)

**Q.** With `CCCN(CC1CC1)c1nc(C)cc(N(C)c2ccccc2)n1` as the molecule, how does the MIC [1] read?
**A.** 12.5 µg/mL (≈ 40.3 µM)

**Q.** Which MIC [1] does the source give for `NC(=O)c1cnccn1` [PYRAZINAMIDE] here?
**A.** 20 µg/mL (≈ 162 µM)

**Q.** Which MIC [4] does the source give for `Cc1cc(C)c(Nc2cc(C)nc(Cl)n2)c(C)c1` here?
**A.** inactive

**Q.** For `CCN(CC)c1nc(C)cc(Nc2ccccc2)n1`, which MIC [1] is on record?
**A.** 25 µg/mL (≈ 97.5 µM)

**Q.** With `CCCN(CC1CC1)c1nc(C)cc(Nc2ccccc2)n1` as the molecule, how does the MIC [1] read?
**A.** 12.5 µg/mL (≈ 42.2 µM)

**Q.** With `CCCN(CC1CC1)c1nc(C)cc(N(C)c2c(C)cc(C)cc2C)n1` as the molecule, how does the MIC [1] read?
**A.** 3.12 µg/mL (≈ 8.85 µM)

**Q.** For `CC(C)/N=c1\cc2n(-c3ccc(Cl)cc3)c3ccccc3nc-2cc1Nc1ccc(Cl)cc1` [CLOFAZIMINE], which MIC [5] is on record?
**A.** 2 µg/mL (≈ 4.22 µM)

**Q.** For `C[C@@H]1CC[C@H]2[C@@H](C)C(=O)O[C@@H]3O[C@@]4(C)CC[C@@H]1[C@]32OO4` [ARTEMISININ], which IC50 (Plasmodium falciparum) is on record?
**A.** 0.001 µg/mL (≈ 0.00354 µM)
